One block for each molecule: values may come before it. Positions of bridges follow the written chain, without caps; N, C: chain ends. Residues, ends and D or L forms follow the SMILES beside them. No end group written: not given here.
Tests used:
P-selectin [1] = target: T1, P-selectin (Homo sapiens, UniProt P16109); assay: Competition of [3H]-CE-labeled sulfatide liposome binding to P-selectin-coated wells; settings: for EC50: Sf28 liposomes (28% sulfatide); for Change in Sf28 liposome binding to P-selectin: Sf28 liposomes 100 μg/mL; for Change in Sf42 liposome binding to P-selectin: Sf42 liposomes 100 μg/mL; for Change in Sf57 liposome binding to P-selectin: Sf57 liposomes 100 μg/mL
T1 construct: purchased R&D systems (Minneapolis, MN, USA)
Protocol: Liposomes were prepared by sonication as follows. Egg yolk phosphatidylcholine, cholesterol, and sulfatides, all dissolved in chloroform/methanol (1:1, v/v), were mixed at weight ratios of 4:0.8:0 (named Sf0), 4:0.8:1.3 (Sf21), 2.5:0.8:1.3 (Sf28), 1:0.8:1.3 (Sf42), and 0.2:0.8:1.3 mg/mL (Sf57). The Sf numbers indicate the number of sulfatides as a percentage of total lipid weight. A tracer amount of [^3H]-cholesteryl oleate ([^3H]-CE; 1.3 × 10^8 dpm (disintegrations per minute)) was added, and the organic solvent was evaporated by a stream of nitrogen. The resulting lipid layer was vortexed in 1 mL phosphate buffered saline (PBS) and subsequently sonicated for 40 min at 54 °C using a Soniprep 150 (MSE Scientific Instruments, Crawley, UK) at 18 µm amplitude. Particle sizes were determined by photon correlation spectroscopy (Malvern 4700 C System, Malvern Instruments, Malvern, UK) at 25 °C and a 90° angle between laser and detector. […] Liposomes were stored at 4 °C under argon and used for characterization and metabolic studies within 7 days following preparation, during which no physicochemical changes occurred. As the liposomes were equal in size and incorporation of the radioactive label was quantitative, the specific activity of each sulfatide-bearing liposome was calculated as the amount of [^3H]-cholesteryloleate (dpm) divided by the total lipid content (ng).
Fc-specific goat anti-human IgG (10 μg/mL) was coated overnight at 4 °C in a high binding 96-well plate (Costar, Corning, UK) in coating buffer (50 mM NaHCO3, pH 9.6). Then, wells were washed with assay buffer (20 mmol/L HEPES, 150 mmol/L NaCl, 1 mmol/L CaCl2, pH 7.4) and incubated for 1 h at 37 °C with blocking buffer (3% bovine serum albumin (BSA) in assay buffer). After washing, wells were incubated with fusion proteins of IgG and P-, E-, or L-selectin (0.3 μg/mL, 2 h, 37 °C), washed with assay buffer, and subsequently incubated for 2 h at 4 °C with a concentration range of [^3H]-CE-labeled liposomes (0–800 µg lipid per mL assay buffer containing 0.2% BSA). For competition studies, labeled liposomes (1 × 10^5 dpm/well) were incubated in the presence of peptides or antibodies at the indicated concentrations. After removal of unbound liposomes by washing four times with assay buffer, bound liposomes were collected in 2-propanol/butanol/water (50:25:20, by vol.) and counted for radioactivity using a scintillation counter. Since the sulfatide liposomes were equal in size, the recovered amount of [^3H]-CE could be used to calculate the binding capacity of P-selectin for the sulfatide liposomes, as well as the recovered amount of lipid (ng/well) based on the specific activity.

[2] = target: P-selectin binding to HL60 cells (PSGL-1) (Homo sapiens, UniProt P16109); settings: displacement of P-selectin binding to HL60 cells; ref Molenaar et al. [28]; cited from earlier work
P-selectin [3] = target: T1, P-selectin; assay: Surface plasmon resonance (Biacore), sulfatide-coated L1 chip, P-selectin; format: binding; settings: Fc fusion protein 40 nM
Protocol: (§1) A Biacore 2000 instrument (Biacore AB, Uppsala, Sweden) was used to analyze the interaction between sulfatides and P-, L, and E-selectins, as described. Experiments were performed at room temperature using running buffer (20 mmol/L HEPES, 150 mmol/L NaCl, 1 mmol/L CaCl2, 0.005% Surfactant P20, pH 7.4). Sulfatides were immobilized on L1 sensor chips at 5 μL/min according to the manufacturer’s instructions. Binding kinetics of human fusion proteins IgG and P-, L- and E- selectins to the immobilized sulfatides were determined by injection of the fusion proteins. At the end of each injection, the sensor chips were regenerated with 100 mmol/L NaOH and equilibrated with running buffer. All curves were corrected for non-specific binding by an online baseline subtraction of ligand binding to a control flow channel. Binding kinetics were analyzed using BIAevaluation software (V2.1; Pharmacia Biosensor, Uppsala, Sweden).
Target sequence in this assay (P16109 with tags, fused parts or gaps limits assumed): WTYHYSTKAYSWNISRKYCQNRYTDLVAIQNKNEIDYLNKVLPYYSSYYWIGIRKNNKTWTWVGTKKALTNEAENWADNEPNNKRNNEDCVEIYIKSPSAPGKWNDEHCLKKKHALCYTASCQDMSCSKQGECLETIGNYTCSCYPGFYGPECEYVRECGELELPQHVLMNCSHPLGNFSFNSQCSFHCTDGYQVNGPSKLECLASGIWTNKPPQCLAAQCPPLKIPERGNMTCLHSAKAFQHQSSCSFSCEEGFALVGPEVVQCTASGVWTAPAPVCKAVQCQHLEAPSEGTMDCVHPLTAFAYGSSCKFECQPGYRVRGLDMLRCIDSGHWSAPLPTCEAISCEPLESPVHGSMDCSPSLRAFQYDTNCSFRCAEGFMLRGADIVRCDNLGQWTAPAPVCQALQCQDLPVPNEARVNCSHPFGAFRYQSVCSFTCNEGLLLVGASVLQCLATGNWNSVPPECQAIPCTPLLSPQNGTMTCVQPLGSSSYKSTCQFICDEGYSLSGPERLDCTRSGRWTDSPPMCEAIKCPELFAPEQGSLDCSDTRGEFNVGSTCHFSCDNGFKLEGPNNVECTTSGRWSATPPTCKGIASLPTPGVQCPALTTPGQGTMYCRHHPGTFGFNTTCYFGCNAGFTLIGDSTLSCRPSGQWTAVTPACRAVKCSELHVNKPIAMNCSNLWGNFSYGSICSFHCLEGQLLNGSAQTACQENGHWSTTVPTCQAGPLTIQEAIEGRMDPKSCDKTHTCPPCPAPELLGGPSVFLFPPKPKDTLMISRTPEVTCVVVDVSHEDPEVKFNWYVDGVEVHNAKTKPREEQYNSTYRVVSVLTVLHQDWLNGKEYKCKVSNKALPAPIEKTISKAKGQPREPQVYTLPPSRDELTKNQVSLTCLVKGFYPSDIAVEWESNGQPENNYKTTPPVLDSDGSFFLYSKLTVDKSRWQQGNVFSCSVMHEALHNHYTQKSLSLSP

L-selectin = target: T2, L-selectin (Homo sapiens, UniProt P14151); assay: Surface plasmon resonance (Biacore), sulfatide-coated L1 chip, L-selectin; format: binding; settings: Fc fusion protein 40 nM
T2 sequence (P14151 39-318 limits assumed): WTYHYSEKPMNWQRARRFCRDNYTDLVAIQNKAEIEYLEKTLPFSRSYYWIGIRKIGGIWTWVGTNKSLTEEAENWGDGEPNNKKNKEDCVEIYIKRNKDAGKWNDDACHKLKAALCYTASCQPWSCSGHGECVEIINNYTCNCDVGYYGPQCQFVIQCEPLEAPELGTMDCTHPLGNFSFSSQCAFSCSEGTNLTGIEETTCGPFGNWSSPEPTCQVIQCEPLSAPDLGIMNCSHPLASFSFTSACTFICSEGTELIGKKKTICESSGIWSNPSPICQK
Protocol: as §1

E-selectin = target: T3, E-selectin (Homo sapiens, UniProt P16581); assay: Surface plasmon resonance (Biacore), sulfatide-coated L1 chip, E-selectin; format: binding; settings: Fc fusion protein 40 nM
T3 construct: purchased R&D systems (Minneapolis, MN, USA)
Protocol: as §1

human platelets [4] = assay: ADP-induced platelet aggregation in human platelet-rich plasma (optical aggregometry); format: cell-based; settings: 10 μM ADP
From the text: Freshly drawn venous blood from healthy volunteers was obtained through the Mini Donor Service, a blood donation facility for research purposes, that is approved by the Medical Ethics Committee of the University Medical Center Utrecht (protocol number 07-125). All donors provided written informed consent, in accordance with the Declaration of Helsinki for blood collection through this service. All participant information is kept confidential, and only Mini Donor Service personnel have access to the information provided. The donors were free of medication for at least two weeks before blood collection. Overnight fasting before blood collection was not necessary. Blood was collected into 0.1 volume 130 mmol/L trisodium citrate and was processed the same day and within 6 h. For aggregation studies, platelet-rich plasma (PRP) was prepared by centrifugation (150 g, 15 min, 20 °C) and adjusted to a final concentration of 2×10^11 platelets/L with platelet-poor plasma prepared from the remaining blood (1100 g, 10 min, 20 °C). […]
(§2) Human PRP was incubated with peptide antagonists (100 μmol/L, 5 min, 37 °C) or vehicle and stimulated with 10 μmol/L ADP under constant stirring at 1000 rpm (37 °C). Optical aggregation was monitored in a Chrono-Log Lumi-aggregometer (Chrono-Log Corporation, Havertown, PA, USA).

human platelets [5] = assay: Aggregate size after ADP-induced aggregation of human PRP (light microscopy); format: cell-based; settings: 100 μM
Protocol: as §2
After 15 min, aggregates were fixed in 1 volume 0.5% glutaraldehyde in PBS and applied to microscope slides. Aggregates were dehydrated with methanol and stained with May-Grünwald/Giemsa. The aggregate size was measured by light microscopy equipped with a JAI-CCD camera (Copenhagen, Denmark) coupled to a Matrox frame grabber (Matrox Electronic Systems Ltd., Dorval, Quebec, Canada) using the ‘watershed’ function of the Optimas 6.2 software (Optimas Inc., Seattle, WA, USA). Results were expressed as mean aggregate size (μm^2).

[6] = target: human P-selectin-IgG (human) (UniProt P16109)
human P-selectin-IgG = target: T4, human P-selectin-IgG (human, UniProt P16109 42-771); assay: radioligand binding; displacement: P-selectin-IgG (0.3 ug/mL) captured on Fc-specific goat anti-human IgG in 96-well plates; [3H]-cholesteryl oleate-labelled Sf28 sulfatide liposomes (1 x 10^5 dpm/well) with increasing amounts of peptide; 2 h, 4 C; 20 mmol/L HEPES, 150 mmol/L NaCl, 1 mmol/L CaCl2, pH 7.4, 0.2% BSA; settings: both partners purified
T4 construct: P-selectin, human, fused to IgG (Fc); Captured in the wells through Fc-specific goat anti-human IgG; also called human Fc fusion protein of P-selectin; fusion protein of IgG and P-selectin; source: bought: R&D systems
T4 sequence (looked up): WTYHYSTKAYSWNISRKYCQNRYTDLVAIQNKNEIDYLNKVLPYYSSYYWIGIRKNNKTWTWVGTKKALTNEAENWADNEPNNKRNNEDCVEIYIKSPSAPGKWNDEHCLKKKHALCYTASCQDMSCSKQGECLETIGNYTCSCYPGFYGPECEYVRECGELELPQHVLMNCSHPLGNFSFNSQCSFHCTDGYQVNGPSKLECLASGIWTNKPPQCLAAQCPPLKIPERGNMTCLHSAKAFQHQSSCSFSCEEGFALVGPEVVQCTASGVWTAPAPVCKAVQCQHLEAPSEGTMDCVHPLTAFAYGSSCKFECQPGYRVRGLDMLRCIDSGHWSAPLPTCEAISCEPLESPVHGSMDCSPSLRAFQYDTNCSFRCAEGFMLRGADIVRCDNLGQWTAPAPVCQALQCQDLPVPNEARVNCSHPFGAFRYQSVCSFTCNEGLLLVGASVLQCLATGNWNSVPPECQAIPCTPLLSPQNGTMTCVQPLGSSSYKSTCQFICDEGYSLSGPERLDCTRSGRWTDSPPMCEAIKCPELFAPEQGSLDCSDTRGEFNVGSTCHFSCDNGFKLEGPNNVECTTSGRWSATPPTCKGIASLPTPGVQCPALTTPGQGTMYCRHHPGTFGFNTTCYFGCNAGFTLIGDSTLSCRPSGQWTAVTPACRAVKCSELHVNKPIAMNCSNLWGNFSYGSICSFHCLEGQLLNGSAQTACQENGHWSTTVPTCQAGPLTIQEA

P-selectin binding to HL60 cells (PSGL-1), sequence (P16109 42-830 limits assumed): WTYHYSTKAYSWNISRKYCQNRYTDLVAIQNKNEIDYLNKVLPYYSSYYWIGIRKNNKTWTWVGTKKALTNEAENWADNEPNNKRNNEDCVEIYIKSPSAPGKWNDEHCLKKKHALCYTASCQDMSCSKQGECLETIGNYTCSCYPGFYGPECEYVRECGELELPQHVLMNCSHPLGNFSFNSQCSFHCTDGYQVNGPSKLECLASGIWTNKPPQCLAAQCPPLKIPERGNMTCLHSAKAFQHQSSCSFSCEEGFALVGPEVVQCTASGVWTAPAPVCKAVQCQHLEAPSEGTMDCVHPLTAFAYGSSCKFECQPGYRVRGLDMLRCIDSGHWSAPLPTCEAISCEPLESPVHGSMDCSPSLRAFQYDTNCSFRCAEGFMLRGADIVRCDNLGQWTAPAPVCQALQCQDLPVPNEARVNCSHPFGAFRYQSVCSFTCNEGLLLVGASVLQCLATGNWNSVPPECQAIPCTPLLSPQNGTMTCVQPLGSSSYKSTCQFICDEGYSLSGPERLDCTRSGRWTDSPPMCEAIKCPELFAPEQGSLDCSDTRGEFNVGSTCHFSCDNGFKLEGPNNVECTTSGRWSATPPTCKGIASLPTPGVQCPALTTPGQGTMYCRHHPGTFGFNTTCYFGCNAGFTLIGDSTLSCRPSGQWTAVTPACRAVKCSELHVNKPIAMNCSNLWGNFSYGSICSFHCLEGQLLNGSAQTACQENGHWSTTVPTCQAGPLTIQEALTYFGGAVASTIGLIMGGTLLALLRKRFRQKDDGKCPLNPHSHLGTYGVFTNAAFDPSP
T3 sequence (P16581 with tags, fused parts or gaps limits assumed): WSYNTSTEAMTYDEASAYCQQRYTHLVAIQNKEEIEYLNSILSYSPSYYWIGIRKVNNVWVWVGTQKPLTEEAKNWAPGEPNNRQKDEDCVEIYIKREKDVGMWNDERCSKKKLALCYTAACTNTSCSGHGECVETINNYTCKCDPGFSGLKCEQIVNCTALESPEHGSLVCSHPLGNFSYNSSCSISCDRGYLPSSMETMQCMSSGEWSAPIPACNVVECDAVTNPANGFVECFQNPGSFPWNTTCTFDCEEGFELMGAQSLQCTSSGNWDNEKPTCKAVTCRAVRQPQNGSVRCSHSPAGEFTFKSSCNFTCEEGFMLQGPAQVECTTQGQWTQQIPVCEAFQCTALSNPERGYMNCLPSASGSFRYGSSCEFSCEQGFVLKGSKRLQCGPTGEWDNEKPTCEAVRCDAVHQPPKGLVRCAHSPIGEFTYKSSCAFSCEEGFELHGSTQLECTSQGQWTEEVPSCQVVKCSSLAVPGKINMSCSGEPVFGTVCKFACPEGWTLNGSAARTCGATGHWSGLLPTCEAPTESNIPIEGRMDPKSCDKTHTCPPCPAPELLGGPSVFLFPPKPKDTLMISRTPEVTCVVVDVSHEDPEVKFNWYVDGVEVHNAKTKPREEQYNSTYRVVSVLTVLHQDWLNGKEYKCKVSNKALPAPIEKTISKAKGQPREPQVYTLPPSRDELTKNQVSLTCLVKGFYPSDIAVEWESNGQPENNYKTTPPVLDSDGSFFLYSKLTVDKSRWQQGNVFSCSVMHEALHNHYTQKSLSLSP

- EC50 (P-selectin [1]): 12 µM
Molecule: DVEWVDVS [DVEWVDVS]
- EC50 [2]: 11 µM

- EC50 (P-selectin [1]): > 1000 µM
Molecule: EWVKV [EWVKV]
- EC50 [2]: > 1000 µM

- Change in Sf28 liposome binding to P-selectin (P-selectin [1]; 10 mM): −79%
- Change in Sf42 liposome binding to P-selectin (P-selectin [1]; 10 mM): did not affect
- Change in Sf57 liposome binding to P-selectin (P-selectin [1]; 10 mM): did not affect
Molecule: O=C(O)CN(CCN(CC(=O)O)CC(=O)O)CC(=O)O [EDTA, reference compound]

- EC50 (P-selectin [1]): > 1000 µM
Molecule: VEWVDV [VEWVDV]
- EC50 [2]: 13 µM

- Binding of P-selectin to sulfatide-coated sensor chip (P-selectin [3]): bind
- Binding of L-selectin to sulfatide-coated sensor chip (L-selectin): bind
- Binding of E-selectin to sulfatide-coated sensor chip (E-selectin): not E-selectin
Molecule: cerebroside sulfate, bovine [Sulfatides]

- EC50 (P-selectin [1]): > 1000 µM
- IC50 (P-selectin [1]; abstract): > 1000 µM
Molecule: EWVDV [EWVDV]
- EC50 [2]: 12 µM

- Change in Sf28 liposome binding to P-selectin (P-selectin [1]; 15 µg/mL): −88%
- Change in Sf42 liposome binding to P-selectin (P-selectin [1]; 15 µg/mL): −97%
- Change in Sf57 liposome binding to P-selectin (P-selectin [1]; 15 µg/mL): −68%
Molecule: rPSGL-1-Ig: recombinant PSGL-1 immunoglobulin fusion, P-selectin inhibitor

- Percentage inhibition of ADP-induced aggregation of human platelet-rich plasma at 100 uM peptide (sulfatide/P-selectin-dependent aggregation) [6]: 0%
Molecule: EWVKV

- Percentage inhibition of ADP-induced aggregation of human platelet-rich plasma at 100 uM peptide (sulfatide/P-selectin-dependent aggregation) [6]: 12%
Molecule: EWVDV

- EC50 (human P-selectin-IgG): 8 µM
Molecule: DVEWVDVA (also called elongated EWVDV peptide)

More lines, now with the values behind:

Molecule: DVEWADVS [DVEWADVS]
- EC50 (P-selectin [1]): > 1000 µM
- EC50 [2]: > 1000 µM

Molecule: DVEWVAVS [DVEWVAVS]
- EC50 (P-selectin [1]): > 1000 µM
- EC50 [2]: > 1000 µM

Molecule: DAEWVDVS [DAEWVDVS]
- EC50 (P-selectin [1]): > 1000 µM
- EC50 [2]: 19 µM

Molecule: DVEWVDAS [DVEWVDAS]
- EC50 (P-selectin [1]): > 1000 µM
- EC50 [2]: > 1000 µM

Molecule: DVAWVDVS [DVAWVDVS]
- EC50 (P-selectin [1]): > 1000 µM
- EC50 [2]: 41 µM

Molecule: CC(C)[C@@H]1NC(=O)[C@H](CC(=O)O)NC(=O)[C@H](C(C)C)NC(=O)[C@H](Cc2c[nH]c3ccccc23)NC(=O)[C@H](CCC(=O)O)NC(=O)[C@H](C(C)C)NC(=O)[C@H](CC(=O)O)NC(=O)[C@@H](N)CSSC[C@@H](C(=O)O)NC(=O)[C@H](CO)NC1=O [CDVEWVDVSC] (H-CDVEWVDVSC-OH; disulfide 1-10 (inferred); N-terminus and C-terminus assumed)
- Change in Sf42 liposome binding to P-selectin (P-selectin [1]; 0.5 µM): did not affect
- Change in Sf57 liposome binding to P-selectin (P-selectin [1]; 0.5 µM): did not affect
- Initial slope of platelet aggregation (human platelets [4]; 100 μM peptide): remained unaltered
- Aggregation: percentage inhibition of platelet aggregation (human platelets [4]; 100 µM peptide, human PRP, maximum aggregation): 43% (p<0.001)
- Reduction of mean aggregate size (human platelets [5]; ADP-induced aggregation of human PRP): about 90%
- Aggregates smaller than 1000 μm^2 (human platelets [5]; 15% in the absence of inhibitors): 76%

Molecule: DVEWVDVA [DVEWVDVA]
- EC50 [2]: 7 µM

Molecule: DVEAVDVS [DVEAVDVS]
- EC50 (P-selectin [1]): > 1000 µM
- EC50 [2]: > 1000 µM

Molecule: AVEWVDVS [AVEWVDVS]
- EC50 (P-selectin [1]): > 1000 µM
- EC50 [2]: 12 µM

B1: CDVEWVDVSC (peptide)
peptide: CDVEWVDVSC
notes: also called peptide antagonist; elongated EWVDV peptide
- EC50 (human P-selectin-IgG): 0.2 µM

Reference: PMC6722823, “Peptide Antagonists for P-selectin Discriminate between Sulfatide-Dependent Platelet Aggregation and PSGL-1-Mediated Cell Adhesion” (Journal of Clinical Medicine, 2019)
